Reference: PubChem BioAssay (NCI)
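Cells were grown in 96-well plates and exposed to each compound for 48 hours at five concentrations; endpoints were interpolated linearly between bracketing concentrations, or set to the highest concentration if not reached. GI50 marks 50% less growth. Definition used: TGI = concentration required for complete inhibition of growth.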

These molecules were tested on CAKI-1 renal (assay: NCI anticancer screen, dose series, 48 h).

| SMILES | GI50 [µM] | TGI [µM] |
| --- | --- | --- |
| C=C(C)[C@@H]1CCC[C@]2(COS(=O)(=O)c3ccc(C)cc3)CC[C@]3(C)[C@@H](CC[C@@H]4[C@@]5(C)CCCNC(C)(C)[C@@H]5CC[C@]43C)[C@@H]12 | 1.74 | 3.15 |
| O=S(=O)(NC1=NCCN1C(=S)SN1CCn2c1nsc2=S)c1ccc(OC(F)(F)F)cc1 | 17.5 | 74.5 |
| CCOC(=O)N1CCC2(CC1)C[C@](C)(C(C)=O)C(C)O2 (stereo partly specified) | – | > 100 |
| COc1cc2c(cc1OC)C(c1ccccc1CCCCl)=NCC2 | – | > 100 |
| COc1cc([C@@H]2c3cc4c(cc3[C@@H](Nc3ccc([N+](=O)[O-])cc3C(=O)c3ccccc3)[C@H]3COC(=O)[C@H]23)OCO4)cc(OC)c1OC | – | > 100 |
| NC(Cc1c[nH]c2c(O)cccc12)C(=O)O (stereo unspecified) | > 100 | > 100 |

What follows are molecules tested on NCI-H23 lung (assay: NCI anticancer screen, dose series, 48 h).

| SMILES | GI50 [µM] | TGI [µM] |
| --- | --- | --- |
| O=S(=O)(NC1=NCCN1C(=S)SN1CCn2c1nsc2=S)c1ccc(OC(F)(F)F)cc1 | 12.7 | 39 |
| CCOC(=O)N1CCC2(CC1)C[C@](C)(C(C)=O)C(C)O2 (stereo partly specified) | – | > 100 |
| COc1cc2c(cc1OC)C(c1ccccc1CCCCl)=NCC2 | – | > 100 |
| COc1cc([C@@H]2c3cc4c(cc3[C@@H](Nc3ccc([N+](=O)[O-])cc3C(=O)c3ccccc3)[C@H]3COC(=O)[C@H]23)OCO4)cc(OC)c1OC | – | > 28.6 |
| NC(Cc1c[nH]c2c(O)cccc12)C(=O)O (stereo unspecified) | > 100 | > 100 |

Each molecule was assayed on SK-MEL-28 melanoma (assay: NCI anticancer screen, dose series, 48 h).

| SMILES | GI50 [µM] | TGI [µM] |
| --- | --- | --- |
| O=S(=O)(NC1=NCCN1C(=S)SN1CCn2c1nsc2=S)c1ccc(OC(F)(F)F)cc1 | 22.7 | 64 |
| CCOC(=O)N1CCC2(CC1)C[C@](C)(C(C)=O)C(C)O2 (stereo partly specified) | – | > 100 |
| COc1cc2c(cc1OC)C(c1ccccc1CCCCl)=NCC2 | – | 49.7 |
| NC(Cc1c[nH]c2c(O)cccc12)C(=O)O (stereo unspecified) | > 100 | > 100 |

The molecules below were run on EKVX NSCLC (assay: NCI anticancer screen, dose series, 48 h).

| SMILES | GI50 [µM] | TGI [µM] |
| --- | --- | --- |
| O=S(=O)(NC1=NCCN1C(=S)SN1CCn2c1nsc2=S)c1ccc(OC(F)(F)F)cc1 | 5.11 | 19.6 |
| CCOC(=O)N1CCC2(CC1)C[C@](C)(C(C)=O)C(C)O2 (stereo partly specified) | – | > 100 |
| COc1cc2c(cc1OC)C(c1ccccc1CCCCl)=NCC2 | – | > 100 |
| COc1cc([C@@H]2c3cc4c(cc3[C@@H](Nc3ccc([N+](=O)[O-])cc3C(=O)c3ccccc3)[C@H]3COC(=O)[C@H]23)OCO4)cc(OC)c1OC | – | > 100 |
| NC(Cc1c[nH]c2c(O)cccc12)C(=O)O (stereo unspecified) | > 100 | > 100 |

The molecules below were run on MCF7 breast (assay: NCI anticancer screen, dose series, 48 h).

| SMILES | GI50 [µM] | TGI [µM] |
| --- | --- | --- |
| O=S(=O)(NC1=NCCN1C(=S)SN1CCn2c1nsc2=S)c1ccc(OC(F)(F)F)cc1 | 4.52 | 25.2 |
| CCOC(=O)N1CCC2(CC1)C[C@](C)(C(C)=O)C(C)O2 (stereo partly specified) | – | > 100 |
| COc1cc2c(cc1OC)C(c1ccccc1CCCCl)=NCC2 | – | > 100 |
| COc1cc([C@@H]2c3cc4c(cc3[C@@H](Nc3ccc([N+](=O)[O-])cc3C(=O)c3ccccc3)[C@H]3COC(=O)[C@H]23)OCO4)cc(OC)c1OC | – | > 100 |
| NC(Cc1c[nH]c2c(O)cccc12)C(=O)O (stereo unspecified) | > 100 | > 100 |

The molecules below were run on SF-268 CNS (assay: NCI anticancer screen, dose series, 48 h).

| SMILES | GI50 [µM] | TGI [µM] |
| --- | --- | --- |
| O=S(=O)(NC1=NCCN1C(=S)SN1CCn2c1nsc2=S)c1ccc(OC(F)(F)F)cc1 | 11 | 98.1 |
| CCOC(=O)N1CCC2(CC1)C[C@](C)(C(C)=O)C(C)O2 (stereo partly specified) | – | > 100 |
| COc1cc2c(cc1OC)C(c1ccccc1CCCCl)=NCC2 | – | > 100 |
| COc1cc([C@@H]2c3cc4c(cc3[C@@H](Nc3ccc([N+](=O)[O-])cc3C(=O)c3ccccc3)[C@H]3COC(=O)[C@H]23)OCO4)cc(OC)c1OC | – | > 100 |
| NC(Cc1c[nH]c2c(O)cccc12)C(=O)O (stereo unspecified) | > 100 | > 100 |

What follows are molecules tested on IGROV1 ovarian (assay: NCI anticancer screen, dose series, 48 h).

| SMILES | GI50 [µM] | TGI [µM] |
| --- | --- | --- |
| O=S(=O)(NC1=NCCN1C(=S)SN1CCn2c1nsc2=S)c1ccc(OC(F)(F)F)cc1 | 11.4 | 29.1 |
| CCOC(=O)N1CCC2(CC1)C[C@](C)(C(C)=O)C(C)O2 (stereo partly specified) | – | > 100 |
| COc1cc2c(cc1OC)C(c1ccccc1CCCCl)=NCC2 | – | > 100 |
| COc1cc([C@@H]2c3cc4c(cc3[C@@H](Nc3ccc([N+](=O)[O-])cc3C(=O)c3ccccc3)[C@H]3COC(=O)[C@H]23)OCO4)cc(OC)c1OC | – | > 100 |
| NC(Cc1c[nH]c2c(O)cccc12)C(=O)O (stereo unspecified) | > 100 | > 100 |

These molecules were tested on ACHN renal (assay: NCI anticancer screen, dose series, 48 h).

| SMILES | GI50 [µM] | TGI [µM] |
| --- | --- | --- |
| O=S(=O)(NC1=NCCN1C(=S)SN1CCn2c1nsc2=S)c1ccc(OC(F)(F)F)cc1 | 10.1 | 23 |
| CCOC(=O)N1CCC2(CC1)C[C@](C)(C(C)=O)C(C)O2 (stereo partly specified) | – | > 100 |
| COc1cc2c(cc1OC)C(c1ccccc1CCCCl)=NCC2 | – | > 100 |
| COc1cc([C@@H]2c3cc4c(cc3[C@@H](Nc3ccc([N+](=O)[O-])cc3C(=O)c3ccccc3)[C@H]3COC(=O)[C@H]23)OCO4)cc(OC)c1OC | – | > 100 |
| NC(Cc1c[nH]c2c(O)cccc12)C(=O)O (stereo unspecified) | > 100 | > 100 |

The molecules below were run on SK-MEL-2 melanoma (assay: NCI anticancer screen, dose series, 48 h).

| SMILES | GI50 [µM] | TGI [µM] |
| --- | --- | --- |
| O=S(=O)(NC1=NCCN1C(=S)SN1CCn2c1nsc2=S)c1ccc(OC(F)(F)F)cc1 | 6.58 | 21 |
| CCOC(=O)N1CCC2(CC1)C[C@](C)(C(C)=O)C(C)O2 (stereo partly specified) | – | > 100 |
| COc1cc2c(cc1OC)C(c1ccccc1CCCCl)=NCC2 | – | > 100 |
| COc1cc([C@@H]2c3cc4c(cc3[C@@H](Nc3ccc([N+](=O)[O-])cc3C(=O)c3ccccc3)[C@H]3COC(=O)[C@H]23)OCO4)cc(OC)c1OC | – | > 100 |

The molecules below were run on OVCAR-3 ovarian (assay: NCI anticancer screen, dose series, 48 h).

| SMILES | GI50 [µM] | TGI [µM] |
| --- | --- | --- |
| O=S(=O)(NC1=NCCN1C(=S)SN1CCn2c1nsc2=S)c1ccc(OC(F)(F)F)cc1 | 7.63 | 22.9 |
| CCOC(=O)N1CCC2(CC1)C[C@](C)(C(C)=O)C(C)O2 (stereo partly specified) | – | > 100 |
| COc1cc2c(cc1OC)C(c1ccccc1CCCCl)=NCC2 | – | > 100 |
| COc1cc([C@@H]2c3cc4c(cc3[C@@H](Nc3ccc([N+](=O)[O-])cc3C(=O)c3ccccc3)[C@H]3COC(=O)[C@H]23)OCO4)cc(OC)c1OC | – | > 100 |
| NC(Cc1c[nH]c2c(O)cccc12)C(=O)O (stereo unspecified) | > 100 | > 100 |

Each molecule was assayed on OVCAR-4 ovarian (assay: NCI anticancer screen, dose series, 48 h).

| SMILES | GI50 [µM] | TGI [µM] |
| --- | --- | --- |
| O=S(=O)(NC1=NCCN1C(=S)SN1CCn2c1nsc2=S)c1ccc(OC(F)(F)F)cc1 | 14.6 | 31.6 |
| CCOC(=O)N1CCC2(CC1)C[C@](C)(C(C)=O)C(C)O2 (stereo partly specified) | – | > 100 |
| COc1cc2c(cc1OC)C(c1ccccc1CCCCl)=NCC2 | – | > 100 |
| COc1cc([C@@H]2c3cc4c(cc3[C@@H](Nc3ccc([N+](=O)[O-])cc3C(=O)c3ccccc3)[C@H]3COC(=O)[C@H]23)OCO4)cc(OC)c1OC | – | > 100 |
| NC(Cc1c[nH]c2c(O)cccc12)C(=O)O (stereo unspecified) | > 100 | > 100 |

The molecules below were run on SF-295 CNS (assay: NCI anticancer screen, dose series, 48 h).

| SMILES | TGI [µM] | GI50 [µM] |
| --- | --- | --- |
| CCOC(=O)N1CCC2(CC1)C[C@](C)(C(C)=O)C(C)O2 (stereo partly specified) | > 100 | – |
| COc1cc2c(cc1OC)C(c1ccccc1CCCCl)=NCC2 | > 100 | – |
| COc1cc([C@@H]2c3cc4c(cc3[C@@H](Nc3ccc([N+](=O)[O-])cc3C(=O)c3ccccc3)[C@H]3COC(=O)[C@H]23)OCO4)cc(OC)c1OC | > 100 | – |
| NC(Cc1c[nH]c2c(O)cccc12)C(=O)O (stereo unspecified) | > 100 | > 100 |

What follows are molecules tested on M14 melanoma (assay: NCI anticancer screen, dose series, 48 h).

| SMILES | GI50 [µM] | TGI [µM] |
| --- | --- | --- |
| O=S(=O)(NC1=NCCN1C(=S)SN1CCn2c1nsc2=S)c1ccc(OC(F)(F)F)cc1 | 25.9 | > 100 |
| CCOC(=O)N1CCC2(CC1)C[C@](C)(C(C)=O)C(C)O2 (stereo partly specified) | – | > 100 |
| COc1cc2c(cc1OC)C(c1ccccc1CCCCl)=NCC2 | – | > 100 |
| COc1cc([C@@H]2c3cc4c(cc3[C@@H](Nc3ccc([N+](=O)[O-])cc3C(=O)c3ccccc3)[C@H]3COC(=O)[C@H]23)OCO4)cc(OC)c1OC | – | > 100 |
| NC(Cc1c[nH]c2c(O)cccc12)C(=O)O (stereo unspecified) | > 100 | > 100 |

Each molecule was assayed on CCRF-CEM leukemia (assay: NCI anticancer screen, dose series, 48 h).

| SMILES | GI50 [µM] | TGI [µM] |
| --- | --- | --- |
| O=S(=O)(NC1=NCCN1C(=S)SN1CCn2c1nsc2=S)c1ccc(OC(F)(F)F)cc1 | 4.01 | > 100 |
| COc1cc2c(cc1OC)C(c1ccccc1CCCCl)=NCC2 | – | > 100 |
| COc1cc([C@@H]2c3cc4c(cc3[C@@H](Nc3ccc([N+](=O)[O-])cc3C(=O)c3ccccc3)[C@H]3COC(=O)[C@H]23)OCO4)cc(OC)c1OC | – | > 100 |
| NC(Cc1c[nH]c2c(O)cccc12)C(=O)O (stereo unspecified) | > 100 | > 100 |

The molecules below were run on U251 CNS (assay: NCI anticancer screen, dose series, 48 h).

| SMILES | GI50 [µM] | TGI [µM] |
| --- | --- | --- |
| O=S(=O)(NC1=NCCN1C(=S)SN1CCn2c1nsc2=S)c1ccc(OC(F)(F)F)cc1 | 14.4 | 29.4 |
